Tested on: Swiss 3T3 cells
Test: Actin stress fibers and cell morphology, phalloidin staining
Assay type: cell-based
Conditions: peptides 25 μM, forskolin and lysophosphatidic acid 10 μM, serum 10%, 30 minutes, phalloidin stain
Method: Unless otherwise stated, all reagents were purchased from Sigma, St. Louis, Mo. Swiss Albino 3T3 fibroblasts (ATCC, Manassas, Va.) were cultured in DMEM supplemented with 10% BCS, 4 mM L-glutamine and 50 μg/ml penicillin-streptomycin and maintained at 37° C., 5% CO2. Cells were seeded and cultured overnight. Culture media was replaced with DMEM containing 0.5% BCS 1 hour prior to experimentation. Cells were incubated with the peptide analogues or reagent (LPA or forskolin) diluted in DMEM containing 0.5% BCS, 30 minutes at 37° C. Cells were then fixed in 4% paraformaldehyde, permeabilized in 0.25% Triton X-100, and blocked with 1% BSA solution for 1 hour. To determine α-actin cytoskeletal distribution, treated cells were incubated with Alexa 568 phalloidin (Molecular Probes, Eugene, Oreg.) in 1% BSA, 30 min. To determine focal adhesion protein localization, treated cells were incubated with primary monoclonal antibodies for α-actinin (1:100, Upstate, Charlottesville, Va.), vinculin (1:100, Sigma) or paxillin (1:100, BD Bioscience-Transduction Labs, San Jose, Calif.) in 1% BSA solution for 2 hours, rinsed in PBS and incubated 60 minutes with Cy3-goat IgG secondary antibody (Jackson ImmunoResearch, West Grove, Pa.). Slides were mounted and analyzed by confocal microscopy (Leica TCS SP2, Bannockburn, Ill.). […]

lysophosphatidic acid
stress fibers and cell morphology: displayed robust stress fibers

Reference: patent US8124579B2, “Heat shock protein 20-related polypeptides and uses therefor” (Arizona Board of Regents, priority 2003, dated 2012)
